We go through four compounds from publication PMC10683025, “Discovery of a Hydroxylamine-Based Brain-Penetrant EGFR Inhibitor for Metastatic Non-Small-Cell Lung Cancer” (Journal of Medicinal Chemistry, 2023).

Details of data set [1]: method as in ref 56−59. Conditions: ref 56−59; cited from earlier work.
Data set [2] addresses T1, EGFRwt (Homo sapiens, UniProt P00533).
T1 construct: purchased Eurofins DiscoverX (contract assay)
In words: KINOMEScan KdELECT Kd determination. In kind it is binding. The settings on record: wt; read-out: EGFR Kd.

Data set [3] deals with T2, EGFR del E746_A750 (Homo sapiens, UniProt P00533, DEL746-750).
T2 construct: purchased Eurofins DiscoverX (contract assay)
T2 sequence (P00533 with tags, fused parts or gaps DEL746-750): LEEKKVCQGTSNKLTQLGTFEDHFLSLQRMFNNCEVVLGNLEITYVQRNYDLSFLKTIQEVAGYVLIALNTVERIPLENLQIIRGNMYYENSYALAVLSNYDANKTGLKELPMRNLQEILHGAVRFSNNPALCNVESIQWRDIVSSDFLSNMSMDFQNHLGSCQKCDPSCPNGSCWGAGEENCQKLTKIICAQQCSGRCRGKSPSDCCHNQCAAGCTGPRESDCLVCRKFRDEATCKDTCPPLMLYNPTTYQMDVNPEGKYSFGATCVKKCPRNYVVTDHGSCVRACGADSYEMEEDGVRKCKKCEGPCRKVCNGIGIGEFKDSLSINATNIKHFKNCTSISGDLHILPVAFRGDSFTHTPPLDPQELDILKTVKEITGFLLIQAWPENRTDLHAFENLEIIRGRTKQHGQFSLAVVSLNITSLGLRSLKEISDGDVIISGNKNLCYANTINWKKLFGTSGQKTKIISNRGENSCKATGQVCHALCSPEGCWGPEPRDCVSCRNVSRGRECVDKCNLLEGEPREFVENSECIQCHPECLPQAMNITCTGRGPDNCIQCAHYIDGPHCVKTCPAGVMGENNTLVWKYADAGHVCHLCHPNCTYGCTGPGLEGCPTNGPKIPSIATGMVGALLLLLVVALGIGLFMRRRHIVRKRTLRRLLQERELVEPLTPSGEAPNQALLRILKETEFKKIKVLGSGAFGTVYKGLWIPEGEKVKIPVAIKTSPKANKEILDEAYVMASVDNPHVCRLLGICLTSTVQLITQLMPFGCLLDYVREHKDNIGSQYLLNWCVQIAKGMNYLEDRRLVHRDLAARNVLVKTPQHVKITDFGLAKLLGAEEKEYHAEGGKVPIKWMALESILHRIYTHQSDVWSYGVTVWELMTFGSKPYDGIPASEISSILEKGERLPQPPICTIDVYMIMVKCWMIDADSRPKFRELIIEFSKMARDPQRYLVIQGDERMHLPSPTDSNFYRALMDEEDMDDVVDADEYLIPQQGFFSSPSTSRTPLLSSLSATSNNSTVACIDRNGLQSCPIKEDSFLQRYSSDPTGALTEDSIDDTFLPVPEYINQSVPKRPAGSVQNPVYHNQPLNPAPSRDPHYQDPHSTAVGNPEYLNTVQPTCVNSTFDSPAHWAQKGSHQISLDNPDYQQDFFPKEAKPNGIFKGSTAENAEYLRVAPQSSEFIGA
Kind of data set: KINOMEScan KdELECT Kd determination. In kind it is binding.

The target in data set [4] is T1, EGFRwt. In words: KinaseProfiler enzymatic radiometric assay. Conditions: wt, ATP 10 μM; read-out: EGFR IC50. The format is biochemical.
Data set [5] relates to HCC827 (EGFR mutation = exon19del). In words: CellTiter-Glo cell viability assay. In kind it is cell-based, human. Conditions: 72 h, unadjusted for FBS.
The subject of data set [6] is NCI-H3255 (EGFR mutation = L858R). Kind of data set: CellTiter-Glo cell viability assay. In kind it is cell-based, human. Conditions: 72 h, unadjusted for FBS.
Data set [7] is described as follows: Lipophilicity, shake-flask. Conditions: 1-octanol/PBS; 1-octanol and PBS (pH 7.4); read-out: logD7.4. The format is physicochemical. The procedure: Compound lipophilicity was determined by Pharmaron, Inc. using the shake-flask method with 1-octanol and PBS (pH 7.4). Each compound was assessed in duplicate (n = 2) at 1 μM in a 96-well plate shaken at 25 °C and 2000 rpm for 2 h. Samples were analyzed by liquid chromatography and tandem mass spectrometry (LC-MS/MS).

Data set [8] can be described thus: Solubility assay. The settings on record: buffer, pH 7.4, aqueous buffer; read-out: Aq. Sol. In kind it is physicochemical. The procedure:
Solubility was determined by Pharmaron, Inc. and each compound was assessed in duplicate (n = 2) by adding 15 μL of compound stock solution (10 mM in DMSO) into a 96-well plate along with 485 μL of buffer followed by shaking at 25 °C, 1100 rpm for 2 h. Wells were filtered, and samples (5 μL) were taken followed by dilution with an equal volume of DMSO (5 μL) and 490 μL of aqueous solution. Samples were analyzed by LC-MS/MS.

A short description of data set [9]: Metabolic stability in liver microsomes. In kind it is in vitro ADME, human. The settings on record: for Remaining Percentage: human LM.
Data set [10] can be described thus: Metabolic stability in liver microsomes. The format is in vitro ADME, Sprague-Dawley rat. The settings on record: for Remaining Percentage: rat LM. (In general: Liver microsomes are vesicles of endoplasmic reticulum, rich in cytochrome P450 enzymes.)
The nature of data set [11]: Caco-2 permeability. The format is in vitro ADME. Conditions: human; for recovery at 2 h, 5 μM: Caco-2, Caco-2. (In general: Caco-2 cells form a polarised layer with tight junctions and transporters.)
A short description of data set [12]: MDCKII-MDR1 permeability. The format is in vitro ADME, canine. Conditions: dog, MDCK-MDR1, MDCKII-MDR1.
For data set [13], the system named is MDR1. Kind of data set: MDCKII-MDR1 permeability. In kind it is in vitro ADME, canine. The settings on record: dog, MDCK-MDR1.
The target of data set [14] is T3, EGFRL858R (Homo sapiens, UniProt P00533, L858R). Kind of data set: KINOMEScan KdELECT Kd determination. The format is binding. Details: purchased Eurofins DiscoverX (contract assay). Conditions: L858R.
T3 sequence (P00533 25-1210 L858R): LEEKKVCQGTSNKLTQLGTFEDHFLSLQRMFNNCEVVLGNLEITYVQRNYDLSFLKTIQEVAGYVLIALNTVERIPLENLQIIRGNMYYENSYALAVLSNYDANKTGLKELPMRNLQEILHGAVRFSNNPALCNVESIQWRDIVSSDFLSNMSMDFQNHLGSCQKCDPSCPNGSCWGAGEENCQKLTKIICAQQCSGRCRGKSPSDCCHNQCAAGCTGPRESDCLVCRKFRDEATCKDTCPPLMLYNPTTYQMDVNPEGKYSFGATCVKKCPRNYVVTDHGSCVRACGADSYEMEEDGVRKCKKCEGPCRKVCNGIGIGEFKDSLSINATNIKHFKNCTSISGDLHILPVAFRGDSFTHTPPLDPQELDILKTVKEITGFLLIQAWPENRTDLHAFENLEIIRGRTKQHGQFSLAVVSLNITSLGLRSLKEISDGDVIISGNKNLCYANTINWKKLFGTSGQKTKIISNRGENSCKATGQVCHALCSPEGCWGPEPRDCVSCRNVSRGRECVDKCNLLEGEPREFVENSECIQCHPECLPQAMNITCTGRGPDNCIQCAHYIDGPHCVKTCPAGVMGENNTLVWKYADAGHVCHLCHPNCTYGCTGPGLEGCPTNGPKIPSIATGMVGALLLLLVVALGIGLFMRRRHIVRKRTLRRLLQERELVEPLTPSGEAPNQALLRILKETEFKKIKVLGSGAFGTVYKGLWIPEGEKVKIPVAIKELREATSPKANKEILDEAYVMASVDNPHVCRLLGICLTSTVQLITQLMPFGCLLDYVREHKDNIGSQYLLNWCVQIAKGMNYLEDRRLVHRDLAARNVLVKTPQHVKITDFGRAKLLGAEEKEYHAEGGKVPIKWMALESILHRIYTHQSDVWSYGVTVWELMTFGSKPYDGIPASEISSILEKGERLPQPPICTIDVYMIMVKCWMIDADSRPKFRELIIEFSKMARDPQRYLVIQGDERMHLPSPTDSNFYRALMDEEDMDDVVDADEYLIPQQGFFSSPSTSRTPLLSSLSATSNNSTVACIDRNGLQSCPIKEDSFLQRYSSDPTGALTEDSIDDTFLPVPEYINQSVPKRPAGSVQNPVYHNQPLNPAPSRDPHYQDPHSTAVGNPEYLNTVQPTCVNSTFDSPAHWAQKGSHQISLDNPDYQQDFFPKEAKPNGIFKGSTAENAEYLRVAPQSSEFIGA
In data set [15] the target is T3, EGFRL858R. Kind of data set: KinaseProfiler enzymatic radiometric assay. Details: purchased Eurofins Cerep (KinaseProfiler, contract assay). The settings on record: ATP 10 μM, read-out: EGFR IC50. The format is biochemical.
Data set [16] concerns Ba/F3 EGFR-L858R/C797S cells. Kind of data set: CellTiter-Glo cell viability assay. The format is cell-based. The settings on record: 72 h, unadjusted for FBS. The procedure:
(§1) The A431, HCC827, SK-BR-3, ZR-75–30, AU565, and Caco-2 cell lines were obtained from ATCC. The NCI-H1975 cell line was obtained from SIBS. The NCI-H3255 cell line was obtained from CoBioer. Engineered Ba/F3 cell lines were obtained from Crown Bioscience. MCKII-MDR1 cells were obtained from The Netherlands Cancer Institute. HEK293 cells were obtained from Invitrogen. A431 cells were cultured in DMEM (Life Technologies) with 10% FBS. HCC827, NCI-H1975, and AU565 cells were cultured in RPMI1640 (Invitrogen) with 10% FBS. NCI-H3255 cells were cultured in BEGM (Lonza) with 10% FBS. Ba/F3 EGFR-del E746_A750/C797S and Ba/F3 EGFR-L858R/C797S cells were cultured in RPMI (Invitrogen) with 10% FBS. SK-BR-3 cells were cultured in McCoy’s 5a (Invitrogen) with 10% FBS. ZR-75-30 cells were cultured in RPMI1640 (Invitrogen) with 20% FBS. Caco-2 and MCKII-MDR1 culture information is given in the Permeability Studies section. HEK293 cells were cultured in DMEM (Gibco) with 10% FBS, 0.1 mM NEAA, 25 mM HEPES, 100 U/mL penicillin-streptomycin, μg/mL blasticidin, and 400 μg/mL Geneticin. All cells were cultured in a humidified incubator with 5% CO2 at 37 °C.
(§2) Viability assays using A431, HCC827, NCI-H1975, NCI-H3255, Ba/F3 EGFR-del E746_A750/C797S, Ba/F3 EGFR-L858R/C797S, AU565, SK-BR-3, and ZR-75-30 cells were performed at Crown BioScience. Cells were plated into 96-well plates at 1500–7000 cells per well and dosed in triplicate (n = 3) in a nine-point, 4-fold dilution series with compounds (0.15 nM to 10 μM) in DMSO and incubated for 72 h. After 72 h, cell viability was assayed by CellTiter-Glo Luminescent Viability Assay (Promega). Dose–response curves were generated and used to calculate the IC50 values which were calculated on GraphPad Prism from the nonlinear regression equation fitted with a sigmoidal dose response and are presented as mean ± SEM.
(In general: ATP-based viability assays read luminescence as a measure of living cells.)

Data set [17] deals with Ba/F3 EGFR-del E746_A750/C797S cells. Kind of data set: CellTiter-Glo cell viability assay. The format is cell-based. The settings on record: 72 h, unadjusted for FBS. The protocol: as §1, §2
The test system of data set [18] is A431 cell line (overexpressed EGFRwt). In words: CellTiter-Glo cell viability assay. In kind it is cell-based, human. The settings on record: 72 h, unadjusted for FBS. The protocol:
as §1, §2

The test system of data set [19] is AU565 (HER2-positive breast cancer). In words: CellTiter-Glo cell viability assay. The format is cell-based, human. The settings on record: 72 h, unadjusted for FBS. The procedure: as §1, §2
In data set [20] the test system is NCI-H1975 (EGFR mutation = L858R/T790M). Kind of data set: CellTiter-Glo cell viability assay. The format is cell-based, human. The settings on record: 72 h, unadjusted for FBS. The procedure:
as §1, §2

For data set [21], the system named is SK-BR-3 (HER2-positive breast cancer). In words: CellTiter-Glo cell viability assay. The format is cell-based, human. The settings on record: 72 h, unadjusted for FBS. The protocol: as §1, §2
Data set [22] relates to ZR-75-30 (HER2-positive breast cancer). In words: CellTiter-Glo cell viability assay. In kind it is cell-based, human. The settings on record: 72 h, unadjusted for FBS. The procedure:
as §1, §2

Converted amounts (≈) assume the structure as drawn. Where two headings read alike, the source gives them in different places.

T1 sequence (P00533 25-1210): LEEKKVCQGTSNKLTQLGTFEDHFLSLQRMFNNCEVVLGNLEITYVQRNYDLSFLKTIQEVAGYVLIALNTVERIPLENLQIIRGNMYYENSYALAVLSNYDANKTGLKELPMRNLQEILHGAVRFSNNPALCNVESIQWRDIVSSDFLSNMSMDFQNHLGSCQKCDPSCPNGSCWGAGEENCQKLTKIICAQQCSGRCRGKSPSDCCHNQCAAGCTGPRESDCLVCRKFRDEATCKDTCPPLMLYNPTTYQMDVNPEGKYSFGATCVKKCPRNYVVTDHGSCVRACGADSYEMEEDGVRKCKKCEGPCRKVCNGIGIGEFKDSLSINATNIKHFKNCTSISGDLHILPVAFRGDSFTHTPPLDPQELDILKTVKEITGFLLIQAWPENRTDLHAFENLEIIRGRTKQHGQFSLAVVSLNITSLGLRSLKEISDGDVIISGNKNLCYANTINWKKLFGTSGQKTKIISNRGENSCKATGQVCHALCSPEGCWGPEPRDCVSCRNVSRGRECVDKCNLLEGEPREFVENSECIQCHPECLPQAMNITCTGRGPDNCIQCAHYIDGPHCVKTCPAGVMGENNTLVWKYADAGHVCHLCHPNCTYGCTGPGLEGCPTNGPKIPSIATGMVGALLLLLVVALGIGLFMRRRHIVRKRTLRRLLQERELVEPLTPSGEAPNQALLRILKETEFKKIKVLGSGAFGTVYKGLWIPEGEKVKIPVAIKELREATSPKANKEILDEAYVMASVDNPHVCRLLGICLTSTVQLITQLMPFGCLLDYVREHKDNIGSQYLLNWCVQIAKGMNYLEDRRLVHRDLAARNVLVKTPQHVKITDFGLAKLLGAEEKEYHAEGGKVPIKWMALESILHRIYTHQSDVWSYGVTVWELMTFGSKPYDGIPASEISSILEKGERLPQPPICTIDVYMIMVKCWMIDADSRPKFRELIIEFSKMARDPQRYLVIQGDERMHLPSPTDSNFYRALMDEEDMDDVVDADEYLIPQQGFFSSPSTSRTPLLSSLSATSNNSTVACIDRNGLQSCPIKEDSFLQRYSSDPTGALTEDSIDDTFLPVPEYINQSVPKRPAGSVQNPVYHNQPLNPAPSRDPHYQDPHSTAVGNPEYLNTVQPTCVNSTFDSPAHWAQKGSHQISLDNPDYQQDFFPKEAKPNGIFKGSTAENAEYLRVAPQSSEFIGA

On to `COc1cc2ncnc(Nc3cccc(Cl)c3F)c2cc1OC(=O)N1CCN(C)C[C@H]1C` [AZD3759], for which the “Kp,uu brain (AUC0-7h)” value in data set [1] is reported as 1.3.
Take `COc1cc2ncnc(Nc3ccc(F)c(Cl)c3)c2cc1OCCON1CCN(C)CC1` [Compound 8, N-(3-Chloro-4-fluorophenyl)-7-methoxy-6-(2-((4-methylpiperazin-1-yl)oxy)ethoxy)quinazolin-4-amine]: the Kd (as a rule, a measure of binding affinity in units of concentration) in data set [2] turned out to be 0.8 nM; in data set [3], 0.4 nM; in data set [14], 0.6 nM. The IC50 (commonly the midpoint of a concentration-inhibition curve) came to 3 nM in data set [4]; 15 nM in data set [5] (Homo sapiens, HCC827); 37 nM in data set [6] (Homo sapiens, NCI-H3255); 2 nM in [15]. The logD at 2 h, 1 µM in data set [7] turned out to be 3.3. Further, the solubility kinetic at 2 h in data set [8] was 18 µM (≈ 8.31 µg/mL). In addition, the “Remaining Percentage” value is recorded as 60.04% in [9] (+Cofactors, 15 min); 39.49% in data set [9] (+Cofactors, 30 min); 24.83% in data set [9] (+Cofactors, 45 min); 20.34% in [9] (+Cofactors, 60 min); 95.02% in data set [9] (-Cofactors, 60 min); 58.02% in data set [10] (+Cofactors, 15 min). Further, the “Remaining Percentage” value was 32.28% in data set [10] (+Cofactors, 30 min); 22.82% in [10] (+Cofactors, 45 min); 15.90% in data set [10] (+Cofactors, 60 min); 97.68% in data set [10] (-Cofactors, 60 min). The half-life at 1 h, 1 µM in data set [9] (human, liver microsomes, read-out: LM t1/2) amounted to 25.4 min; in data set [10] (Sprague-Dawley, rat, liver microsomes, read-out: LM t1/2), 22.4 min. In addition, the microsomal CLint at 1 h, 1 µM in data set [9] (human, liver microsomes, read-out: LMClint) turned out to be 55 µL/min/mg; in data set [10] (Sprague-Dawley, rat, liver microsomes, read-out: LMClint) it was 62 µL/min/mg. For the same compound, in data set [11] (Caco-2), the efflux ratio (usually a quotient of directional permeabilities that is used to spot active efflux) at 2 h, 5 µM was 20.2. In addition, in data set [11] (Caco-2), the efflux ratio at 2 h, 5 μM worked out at 19.3. Besides, the recovery at 2 h, 5 μM is 63.3% in data set [11] (read-out: Recovery% (AP-BL)) and 72.3% in data set [11] (read-out: Recovery% (BL-AP)). In addition, the apparent permeability from apical to basolateral (Papp A→B) – broadly, how fast a substance crosses the layer from the apical side – at 2 h, 5 µM in data set [11] (Caco-2, 5 μM, 2 h) is 0.6 ×10⁻⁶ cm/s. This compound also registered a Papp A→B at 2 h, 5 μM in data set [11] (Caco-2, 5 μM, 2 h) of 0.63 ×10⁻⁶ cm/s. In addition, in data set [11] (Caco-2, 5 μM, 2 h), the Papp B→A (in general, the apparent permeability from the basolateral to the apical side of a cell layer) at 2 h, 5 µM stood at 12.1 ×10⁻⁶ cm/s. Also, the recovery at 2 h, 1 μM amounted to 58.6% in data set [12] (read-out: Recovery% (AP-BL)) and 76.1% in data set [12] (read-out: Recovery% (BL-AP)). Further, the efflux ratio at 2 h, 1 µM in data set [13] was 8.7. Besides, the efflux ratio at 2 h, 1 μM in [13] amounted to 8.65. The Papp A→B at 2 h, 1 µM in data set [13] (1 μM, 2 h) was found to be 1.4 ×10⁻⁶ cm/s. Further, the Papp A→B at 2 h, 1 μM in data set [13] (1 μM, 2 h) came out at 1.35 ×10⁻⁶ cm/s. In data set [13] (1 μM, 2 h), this compound showed a Papp B→A at 2 h, 1 µM of 11.7 ×10⁻⁶ cm/s. The Papp B→A at 2 h, 1 μM in [13] (1 μM, 2 h) stood at 11.7 ×10⁻⁶ cm/s.
Turning to `N.N.[Cl][Pt][Cl]` [Cisplatin, reference compound], the IC50 is above 10000 nM in [5]; above 10000 nM in data set [6]; 411 ± 10 nM in data set [16]; 361 ± 15 nM in data set [17]; 4150 nM in data set [18]; 2570 nM in data set [19]. Besides, the IC50 in [20] is 8800 nM; in [21], 1960 nM; in [22], 4180 nM.
Consider `Fc1c(Br)cccc1Nc1ncnc2cc3c(cc12)OCCO3` [JCN037], for which, in [1], the “Kp,uu brain (AUC0-7h)” value was 1.3.
